According to patent US8163909B2, “Substituted hydroxyethyl amine compounds as beta-secretase modulators and methods of use” (Amgen Inc., priority 2007, dated 2012):
pIC50: −log10 of the molar value. Like-named read-outs stand apart in the source and are kept apart here.

How the values were obtained:
[1] = biological target: Beta Secretase enzyme (BACE) (Homo sapiens, UniProt P56817); test: In vitro enzymatic BACE FRET (fluorescence resonance energy transfer) assay; type: biochemical; details: read-out: BACE1 FRET assay; for pIC50: BACE enzyme assay IC50;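 on all read-outs here: fluorescence read after 1 h with 50 nM quenched peptide substrate spanning the BACE cleavage site, in pH 4.2 acetate buffer containing 10% DMSO and nonionic detergent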
Sequence of Beta Secretase enzyme (BACE) (P56817 46-501): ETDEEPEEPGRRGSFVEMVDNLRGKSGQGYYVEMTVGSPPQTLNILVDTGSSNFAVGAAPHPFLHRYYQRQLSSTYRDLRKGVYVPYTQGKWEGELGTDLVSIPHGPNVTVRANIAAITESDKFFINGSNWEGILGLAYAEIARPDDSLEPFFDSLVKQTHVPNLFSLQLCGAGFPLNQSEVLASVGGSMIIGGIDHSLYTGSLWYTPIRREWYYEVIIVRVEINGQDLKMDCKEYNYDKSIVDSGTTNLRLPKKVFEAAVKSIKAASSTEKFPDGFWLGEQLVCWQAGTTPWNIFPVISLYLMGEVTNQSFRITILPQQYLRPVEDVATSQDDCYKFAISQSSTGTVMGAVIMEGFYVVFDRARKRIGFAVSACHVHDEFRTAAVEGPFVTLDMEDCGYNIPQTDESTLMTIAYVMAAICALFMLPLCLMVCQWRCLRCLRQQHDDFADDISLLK

[2] = tested on: Aβ40 in conditioned medium of cells stably expressing Amyloid Precursor Protein (APP); test: In vitro BACE cell-based assay (Aβ40 in conditioned medium, sandwich ELISA); details: Homo sapiens, read-out: HEK cell assay; for pIC50: HEK293, HEK cell-based assay IC50;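 on all read-outs here: compounds added as a dilution series, secreted peptide quantified by europium time-resolved fluorescence readout, potency fitted from percent of control versus compound concentration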
CYP3A4 (CYP3A) = CYP3A4 (CYP3A) (Homo sapiens, UniProt P08684); test: in vitro; details: microsomes, pH 7.4;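 further: inhibition of CYP3A-mediated 1-hydroxymidazolam formation after 10 min incubation with NADPH, quantified by HPLC MS relative to metabolite produced without test compound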
Sequence of CYP3A4 (CYP3A) (P08684 2-503): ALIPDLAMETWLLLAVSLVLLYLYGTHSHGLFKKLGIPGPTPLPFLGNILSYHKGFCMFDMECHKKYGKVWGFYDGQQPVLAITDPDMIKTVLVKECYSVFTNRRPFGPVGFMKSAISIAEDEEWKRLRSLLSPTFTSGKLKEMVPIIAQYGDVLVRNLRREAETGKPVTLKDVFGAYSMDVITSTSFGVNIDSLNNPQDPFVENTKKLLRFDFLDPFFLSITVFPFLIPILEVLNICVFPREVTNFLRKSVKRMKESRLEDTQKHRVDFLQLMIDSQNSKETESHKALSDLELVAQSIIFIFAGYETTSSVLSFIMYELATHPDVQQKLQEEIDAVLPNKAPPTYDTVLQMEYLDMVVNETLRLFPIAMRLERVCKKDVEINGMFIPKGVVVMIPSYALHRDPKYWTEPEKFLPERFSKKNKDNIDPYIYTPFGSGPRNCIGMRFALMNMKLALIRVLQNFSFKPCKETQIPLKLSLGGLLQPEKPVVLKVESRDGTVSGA

[3] = Microsomal stability assay, rat liver microsomes;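 further: rat liver microsomes (0.25 mg/mL) with about 1 µM compound plus 1 mM NADPH, pH 7.4, 37 °C for 30 min, parent left measured by LC-MS/MS against 0 min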
[4] = Microsomal stability assay, human liver microsomes;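 further: pooled human liver microsomes at 0.25 mg/mL with 1 µM compound and NADPH at 37 °C, pH 7.4, for 30 min, unchanged parent quantified by LC-MS/MS against the 0 min sample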
CYP2D6 = CYP2D6 (Homo sapiens, UniProt P10635); test: CYP2D6 inhibition assay (bufuralol, pooled human liver microsomes); details: 2D6 IC50 (uM)
Sequence of CYP2D6 (P10635 whole entry): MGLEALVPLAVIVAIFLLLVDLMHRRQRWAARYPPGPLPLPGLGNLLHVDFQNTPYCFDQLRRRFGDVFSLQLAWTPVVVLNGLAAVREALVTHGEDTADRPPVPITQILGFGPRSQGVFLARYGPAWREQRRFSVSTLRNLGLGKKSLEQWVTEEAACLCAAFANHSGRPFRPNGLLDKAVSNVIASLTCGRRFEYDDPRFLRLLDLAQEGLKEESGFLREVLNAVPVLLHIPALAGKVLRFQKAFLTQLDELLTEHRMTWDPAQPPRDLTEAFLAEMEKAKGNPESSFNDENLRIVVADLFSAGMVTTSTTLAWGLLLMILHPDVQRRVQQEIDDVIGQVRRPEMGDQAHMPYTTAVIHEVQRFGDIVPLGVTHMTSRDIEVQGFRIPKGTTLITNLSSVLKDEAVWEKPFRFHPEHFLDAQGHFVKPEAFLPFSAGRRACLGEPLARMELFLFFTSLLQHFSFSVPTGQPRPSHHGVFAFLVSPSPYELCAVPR

Structure (SMILES) | pIC50 [1] | pIC50 [2] | pIC50 (CYP3A4 (CYP3A)) | RLM ([3]; rat liver microsomes) [µL/min/mg] | HLM ([4]; human liver microsomes) [µL/min/mg] | IC50 (CYP2D6; CYP2D6 inhibition) [µM] | IC50 ([1]; BACE enzyme assay, IC50's in uM) [µM] | IC50 ([2]; HEK293, HEK cell-based assay, IC50's in uM) [µM] | RLM ([3]; rat liver microsomal data) [µL/min/mg] | HLM ([4]; human liver microsomal data) [µL/min/mg] | IC50 (CYP2D6; CYP enzyme inhibition) [µM]
CCC(=O)N[C@@H](Cc1ccc2c(c1)OCO2)[C@H](O)CN[C@H]1CC2(CCC2)Oc2ncc(CC(C)C)cc21 [compound 726, N-((1S,2R)-1-(1,3-benzodioxol-5-ylmethyl)-2-hydroxy-3-(((4′S)-6′-(2-methylpropyl)-3′,4′-dihydrospiro[cyclobutane-1,2′-pyrano[2,3-b]pyridin]-4′-yl)amino)propyl)propanamide] | 7.36 | 7.32 | ≥ 7.52 | 173 | 34 | 1.4 |  |  |  |  | 
COCC(=O)N[C@@H](Cc1ccc(F)c(-c2nccs2)c1)[C@H](O)CN[C@H]1CC2(CCC2)Oc2ncc(CC(C)C)cc21 [compound 727] | 7.96 | 7.64 | ≥ 7.52 | 74 | 45 | 0.5 |  |  |  |  | 
COCC(=O)N[C@@H](Cc1ccc(F)c(-c2ncc(C)s2)c1)[C@H](O)CN[C@H]1CC2(CCC2)Oc2ncc(CC(C)(C)C)cc21 [compound 729] | 7.32 | 6.54 | 6.40 | 399 | 371 | 3.9 |  |  |  |  | 
COCC(=O)N[C@@H](Cc1cc(F)cc(-c2ncc(C)s2)c1)[C@H](O)CN[C@H]1CC2(CCC2)Oc2ncc(CC(C)C)cc21 [compound 732] | 7.74 | 7.08 | 6.70 | 399 | 551 | 2.5 |  |  |  |  | 
COCC(=O)N[C@@H](Cc1cc(F)cc(-c2nc(C)cs2)c1)[C@H](O)CN[C@H]1CC2(CCC2)Oc2ncc(CC(C)C)cc21 [compound 733] | 8.10 | 7.68 | ≥ 7.52 | 399 | 249 | 4.5 |  |  |  |  | 
Cc1csc(CN2CCO[C@H](C(=O)N[C@@H](Cc3ccc(F)cc3)[C@H](O)CN[C@H]3CC4(CCC4)Oc4ncc(CC(C)(C)C)cc43)C2)n1 [compound 734] | 7.92 | 7.85 | 7.00 | 335 | 543 | 2.4 |  |  |  |  | 
CO[C@H](C)C(=O)N[C@@H](Cc1ccc(-c2nccs2)cc1)[C@H](O)CN[C@H]1CC2(CCC2)Oc2ncc(CC(C)(C)C)cc21 [compound 735] | 7.31 | 7.22 | ≥ 7.52 | 80 | 78 | 1 |  |  |  |  | 
CO[C@H](C)C(=O)N[C@@H](Cc1cc(F)cc(-c2nccs2)c1)[C@H](O)CN[C@H]1CC2(CCC2)Oc2ncc(CC(C)(C)C)cc21 [compound 738, (2R)-N-((1S,2R)-3-(((4′S)-6′-(2,2-dimethylpropyl)-3′,4′-dihydrospiro[cyclobutane-1,2′-pyrano[2,3-b]pyridin]-4′-yl)amino)-1-(3-fluoro-5-(1,3-thiazol-2-yl)benzyl)-2-hydroxypropyl)-2-methoxypropanamide] | 8.10 | 8.00 | ≥ 7.52 | 59 | 50 | 0.6 |  |  |  |  | 
CN1CCO[C@@H](C(=O)N[C@@H](Cc2ccc(F)cc2)[C@H](O)CN[C@H]2CC3(CCC3)Oc3ncc(CC(C)(C)C)cc32)C1 [compound 739] | 7.19 | 8.10 | 6.10 | 239 | 266 | 6.7 |  |  |  |  | 
CO[C@H](C)C(=O)N[C@@H](Cc1ccc2c(c1)OCO2)[C@H](O)CN[C@H]1CC2(CCC2)Oc2ncc(CC(C)(C)F)cc21 [compound 741] | 6.45 | 6.48 | ≥ 7.52 | 76 | 25 | 5 |  |  |  |  | 
CO[C@H](C)C(=O)N[C@@H](Cc1cc(F)cc(-c2nccs2)c1)[C@H](O)CN[C@H]1CC2(CCC2)Oc2ncc(CC(C)(C)F)cc21 [compound 742] | 7.08 | 7.35 | 6.15 | 42 | 39.5 | 0.95 |  |  |  |  | 
CN1CCO[C@H](C(=O)N[C@@H](Cc2ccc(F)cc2)[C@H](O)CN[C@H]2CC3(CCC3)Oc3ncc(CC(C)(C)C)cc32)C1 [compound 744] | 6.43 | 7.12 | 6.05 | 266 | 333 | 11.2 |  |  |  |  | 
COCC(=O)N[C@@H](Cc1ccc(F)cc1)[C@H](O)CN[C@H]1CC(C)(C)Oc2c1cc(Br)c1c2OCO1 [compound 745] | 5.24 | 6.64 | 6.30 | 177 | 179 | 3.1 |  |  |  |  | 
COCC(=O)N[C@@H](Cc1cc(F)cc(F)c1)[C@H](O)CN[C@H]1CC(C)(C)Oc2c1cc(Br)c1c2OCO1 [compound 746] | 6.56 | 6.73 | 6.70 | 144 | 150 | 3.8 |  |  |  |  | 
COCC(=O)N[C@@H](Cc1cc(F)cc(F)c1)[C@H](O)CN[C@H]1CC(C)(C)Oc2c1cc(CC(C)C)c1c2OCO1 [compound 748] | 7.89 | 6.90 | 7.00 | 179 | 190 | 8.2 |  |  |  |  | 
COCC(=O)N[C@@H](Cc1cc(F)cc(-c2nccs2)c1)[C@H](O)CN[C@H]1CC2(CCC2)Oc2ncc(C3CC3)cc21 [compound 749] | 7.34 | 7.13 | 6.52 | 51 | 59 | 1.6 |  |  |  |  | 
CO[C@H](C)C(=O)N[C@@H](Cc1cc(F)cc(-c2nccs2)c1)[C@H](O)CN[C@H]1CC2(CCC2)Oc2c1cc(CC(C)C)nc2Cl [compound 752] | 8.05 | 7.17 | 7.00 | 137 | 166 | 1.3 |  |  |  |  | 
COC(OC)C(=O)N[C@@H](Cc1ccc2c(c1)OCO2)[C@H](O)CN[C@H]1CC2(CCC2)Oc2ncc(CC(C)C)cc21 [compound 754, N-((1S,2R)-1-(1,3-benzodioxol-5-ylmethyl)-2-hydroxy-3-(((4′S)-6′-(2-methylpropyl)-3′,4′-dihydrospiro[cyclobutane-1,2′-pyrano[2,3-b]pyridin]-4′-yl)amino)propyl)-2,2-dimethoxyacetamide] | 7.43 | 7.27 | 7.00 | 86 | 29 | 3.5 |  |  |  |  | 
Cc1nc(CN2CCO[C@@H](C(=O)N[C@@H](Cc3ccc(F)cc3)[C@H](O)CN[C@H]3CC4(CCC4)Oc4ncc(CC(C)(C)C)cc43)C2)cs1 [compound 755] |  |  | 6.52 |  |  |  | 0.012 | 0.007 | 191 | 522 | 3.3
